Reference: patent publication US20260138965A1, “CRYSTALLINE FORMS OF A TYK2 INHIBITOR AND USES THEREOF” (Alumis Inc., priority 2022, published 2026)
Converted amounts (≈) assume the structure as drawn.

Key:
Assay type in all cases: physicochemical
[1] = Solubility of crystalline Form 1 in aqueous and biorelevant media
[2] = Solubility of crystalline Form 1 in organic solvents; conditions: organic solvent or mixture
[3] = Solid form chemical and physical stability

- solubility ([1]; in FaSSIF): 1 to 2 µg/mL (≈ 2.34 to 4.69 µM)
- solubility ([1]; in FeSSIF): 30 to 50 µg/mL (≈ 70.3 to 117 µM)
- solubility ([1]; simulated gastric fluid, in SGF): 3970 to 4280 µg/mL (≈ 9310 to 10000 µM)
- solubility ([2]; in MeOH): < 3000 µg/mL
- solubility ([2]; in MeOH/DCM (1/1)): > 43000 µg/mL
- solubility ([2]; in THF): < 17000 µg/mL
- solubility ([2]; in acetone): < 3000 µg/mL
- solubility ([2]; in acetonitrile): < 1000 µg/mL
- solubility ([2]; in ethanol): < 1000 µg/mL
- solubility ([2]; in ethyl acetate): < 1000 µg/mL
- solubility ([2]; in heptane): < 1000 µg/mL
- solubility ([2]; in isopropyl alcohol): < 1000 µg/mL
- solubility ([2]; in methyl t-butyl ether): < 1000 µg/mL
- time chemically and physically stable ([3]; 40° C./75% RH): at least 10 days
- time chemically and physically stable ([3]; 60° C.): at least 10 days
SMILES: [2H]C([2H])([2H])CC(=O)c1cnc(NC(=O)C2CC2)cc1Nc1cccc(-c2ncn(C([2H])([2H])[2H])n2)c1OC [Form 1, N-(4-((2-methoxy-3-(1-(methyl-d3)-1H-1,2,4-triazol-3-yl)phenyl)amino)-5-(propanoyl-3,3,3-d3)pyridin-2-yl) cyclopropanecarboxamide]
